{"source": "patent US12661415B2", "about": "“Isoindolinone compounds and imaging agents for imaging Huntingtin protein” (CHDI Foundation, Inc., priority 2021, dated 2026)", "key": {"[1]": {"assay": "Unbound brain fraction (fu,brain) in mouse brain by equilibrium dialysis", "assay_type": "in vitro ADME", "settings": "20% mouse brain homogenate, 5 μM, equilibrium dialysis 6 h at 37° C., average of triplicate", "description": "Compounds were tested for unbounded brain fraction (or free fraction in brain, fu,brain). It is an accepted standard in the CNS PET imaging field that compounds with low unbound fraction in brain (<5%) likely have high non-specific binding background that is undesirable for the detection of target binding. As a result, fu,brain is an important property in the design of PET ligands for brain imaging [see Zhang et al., Design and selection parameters to accelerate the discovery of novel central nervous system positron emission tomography (PET) ligands and their application in the development of a novel phosphodiesterase 2A PET ligand. J Med Chem 2013, 56 (11), 4568-79; Liu et al., Imaging Mutant Huntingtin Aggregates: Development of a Potential PET Ligand. J Med Chem 2020, 63 (15), 8608-8633].\nDetermining fu,brain in Mouse Brain by Equilibrium Dialysis. Dialysis membranes (12-14 kDa) (HTDialysis, Connecticut) were soaked in phosphate buffer (10 mM potassium phosphate and 0.8% sodium chloride buffer, pH 7.4 at 37° C.) for a minimum of 1 h, at this time ethanol was added (final concentration of 20% v/v) and membranes continued to soak for 30 min Mouse brain tissue was diluted in phosphate buffer in a […] (w/v) and homogenised using a Precellys 24 (Stretton Scientific, UK) to achieve a final concentration of 20% brain homogenate.\nTest compounds prepared as DMSO stocks at 0.5 mM are diluted into brain homogenate to achieve 5 μM final substrate concentration (1% DMSO) and a t=0 sample was prepared by sampling 50 μL of into 400 μL of quench solution (Acetonitrile containing 0.1% formic acid and sulfisoxazole/tolbutamide/imipramine/labetalol 200 nM). Samples were matrix matched with the addition of 50 μL of assay buffer. The HTDialysis Teflon blocks (HTDialysis, Connecticut) were assembled with pre-soaked membrane between each receiver and donor well and clamped in the stainless steel pressure plate (HTDialysis, Connecticut). The lower compartment (acceptor side) was dosed with 120 μL of buffer and the upper compartment (donor side) was dosed with 120 μL of compound in homogenate. All test compounds and controls were completed in triplicate. The HT dialysis plate was sealed and incubated for 6 h at 37° C. shaking at 250 rpm.\nFollowing the incubation, 50 μL of sample was removed from all donor and acceptor wells and transferred into a quench plate containing 400 μL of quench solution. All samples were matrix matched with 50 μL of the alternate blank matrix. Analytical samples were diluted 1:1 with water using the Janus Robot and analysed by LC-MS/MS.\nPeak areas of donor and acceptor compartments were compared to determine percent unbound (% fu) and the average of triplicate measurements was reported. Reference T0 sample was used to calculate sample recovery (%). Control compounds were compared with historic and literature values to ensure assay functionality."}, "[2]": {"target": "T1, MBP-HTT(1-89)Q46-His(6×) (Exon1-Q46) protein aggregates (Homo sapiens, UniProt P42858, INS38QQQQQQQQQQQQQQQQQQQQQQQQQ)", "T1 construct": "MBP-HTT(1-89)Q46-His(6×); His(6×) (C); made in house", "T1 sequence (P42858 with tags, fused parts or gaps with the stated changes)": "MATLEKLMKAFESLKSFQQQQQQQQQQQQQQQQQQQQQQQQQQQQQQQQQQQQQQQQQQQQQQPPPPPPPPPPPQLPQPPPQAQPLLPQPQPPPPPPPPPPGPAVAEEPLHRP", "assay": "Exon1-Q46 radioligand binding assay (RBA)", "settings": "aggregated Exon1-Q46 1 μM; 0.3 nM ligand [3H3-methyl]-5-((5-methoxypyridin-2-yl)methoxy)-2-(pyrazin-2-yl)benzo[d]oxazole; 60 minutes at 37° C.; read-out: Potency Range (IC50)", "description": "Exon1-Q46 Radioligand Binding Assay\nFor radioligand binding assays (RBA) MBP-HTT(1-89)Q46-His(6×) (“Exon1-Q46”) protein was generated based on a previous publication (Scherzinger et al. Cell, Vol. 90, 549-558, Aug. 8, 1997). For experiments 30 μM MBP-Exon1-Q46 was incubated with 150 μg/mL thrombin in assay buffer (150 mM NaCl, 50 mM Tris pH 8.0) and 2 mM CaCl2 for 16 hours at 37° C. Aggregated Exon1-Q46 was pelleted by centrifugation for 5 minutes at 13,000 rpm in a bench top centrifuge and re-dissolved in the same volume of assay buffer. Test compounds were prepared by titration in DMSO at 11 concentrations from 63 μM to 2 nM. For the RBA, Exon1-Q46 protein aggregates and test compounds were pre-incubated in assay buffer for 20 minutes at room temperature, in 100 μL/well in a 96-well plate (pp, round bottom). Then, ligand was added in 50 μL/well and incubated for 60 minutes at 37° C. Final assay concentrations were 1 μM to 30 pM test compound, 1 μM Exon1-Q46 protein (equivalent monomer concentration) and 0.3 nM ligand [^3H3-methyl]-5-((5-methoxypyridin-2-yl)methoxy)-2-(pyrazin-2-yl)benzo[d]oxazole. Samples were transferred onto GF/B filter plates and washed 2× with 200 μL PBS using a Filtermate Harvester. After drying filter plates for 1 hour at 55° C., the back of the plates were sealed with foil and 30 μL/well scintillation fluid (Packard MicroScint 40) added, incubated for 15 minutes in the dark and counted in a MicroBeta reader. For analysis, replicate data from independent assay plates were normalized towards 0% and 100% inhibition using control wells of vehicle (0% inhibition) and 1 μM unlabelled [^3H3-methyl]-5-((5-methoxypyridin-2-yl)methoxy)-2-(pyrazin-2-yl)benzo[d]oxazole (100% inhibition). IC50 values were determined with a sigmoidal inhibition model with four variables (top, bottom, slope, IC50) in a global fit using the normalized replicate data.\nThe results for various example compounds were as provided in the table below (+++<100 nM; ++100−500 nM; +>500 nM; ND: not determined): […]"}, "mHTT aggregates [3]": {"system": "mHTT aggregates", "assay": "In situ autoradiography (ARG) binding, human post-mortem brain sections", "settings": "human HD brain sections, 0.3 nM radioligand", "text": "In situ autoradiography (ARG) was used to investigate the pharmacological binding characteristics of a tritium-labeled Compound 1-6 (“[^3H]-Compound 1-6”) in the HD mouse model 12-month-old HOM zQ175 and human post-mortem brains from healthy and HD gene-expanded carriers (HDGECs); specificity of binding was explored by including samples from Alzheimer's disease (AD) patients, which contain other pathological aggregates (e.g., Abeta-containing plaques and phosphor-Tau-expressing tangles). Saturation binding experiments were performed in coronal brain sections; [^3H]-Compound 1-6 binding was quantified by densitometric analysis and specific binding was determined in cortex (CTX). Affinity (KD) and maximum number of binding sites (Bmax) were determined for each region of interest (ROI).\nThe non-fixed and non-embedded frozen brains were sectioned by using a cryostat at −18° C. Thereby, serial coronal tissue sections of 20 μm thickness were mounted on superfrost slides and dried at room temperature for approximately 90 minutes. The slides were stored at −80° C. until the different experiments were conducted, but not longer than 3 weeks. A similar procedure was conducted with fresh-frozen human post-mortem brain blocks (healthy subjects {CTRL}, Huntingon's disease {HD}, and Alzheimer's disease {AD}).\nThe appropriate number of slides containing the respective tissue sections were acclimated to room temperature for 30 minutes. The slides were then pre-incubated by immersion into 40 mL assay buffer for 20 minutes at room temperature. Following this pre-incubation step, one slide per animal was incubated by immersion into 30 mL of the 10 nM, 3 nM, 1 nM, 0.3 nM, 0.1 nM, 0.03 nM, 0.01 nM, or 0.003 nM Compound 1-6 solutions and one slide was incubated by immersion into 30 mL of 10 nM, 3 nM, 1 nM, 0.3 nM, 0.1 nM, 0.03 nM, 0.01 nM, or 0.003 nM [^3H]-Compound 1-6, plus 10 μM unlabeled Compound 1-6 solutions for 60 minutes at room temperature, respectively. A similar paradigm was performed with tritium-labeled Comparative Compound 3 (“[^3H]-Comparative Compound 3”) and tritium-labeled Comparative Compound 4 (“[^3H]-Comparative Compound 4”). Structures of these comparative compounds and compound 1-6 are shown below.\nAfterwards, the slides were washed three times for 10 minutes with 200 mL of ice cold washing buffer at 4° C. and dipped for three seconds in ice cold distilled water to remove buffer salts. The slides were dried for three hours at 30° C. and exposed for 96 hours to Fuji BAS-TR 2015 tritium phosphor screens together with the calibrated tritium standards ART 0123C and ART 0123B. Stored radiation energy on the screen was scanned using the phosphorimager Typhoon FLA 7000.\nDensitometric data analysis was performed using the MCID Analysis 7.1 software (Interfocus Imaging Ltd.). Within each brain section, regions of interest (ROI) were defined for STR, CTX, and HPC by using appropriate sample tools, and the software calculated density measures from the gray level values of all pixels within a defined ROI (Molecular dynamics counts per unit area, MDC/mm^2). Densitometric calibration related the optical densities to known concentrations of radioactivity from the calibrated tritium standards (fmol/mg tissue) and mean values were calculated for each ROI of the individual brains. Total binding (TB) and non-specific binding (NSB) of the radioligand were quantified, and specific binding (SB) was derived by subtracting NSB from TB (SB=TB−NSB) for each brain and ROI, respectively. Subsequently, the group mean±standard deviation (SD) was calculated for each ROI and experimental condition. The data were fitted to one-site binding equation using non-linear regression method in GraphPad Prism Software."}, "mHTT aggregates [4]": {"target": "mHTT aggregates (Mus musculus, UniProt P42859)", "sequence (P42859 whole entry)": "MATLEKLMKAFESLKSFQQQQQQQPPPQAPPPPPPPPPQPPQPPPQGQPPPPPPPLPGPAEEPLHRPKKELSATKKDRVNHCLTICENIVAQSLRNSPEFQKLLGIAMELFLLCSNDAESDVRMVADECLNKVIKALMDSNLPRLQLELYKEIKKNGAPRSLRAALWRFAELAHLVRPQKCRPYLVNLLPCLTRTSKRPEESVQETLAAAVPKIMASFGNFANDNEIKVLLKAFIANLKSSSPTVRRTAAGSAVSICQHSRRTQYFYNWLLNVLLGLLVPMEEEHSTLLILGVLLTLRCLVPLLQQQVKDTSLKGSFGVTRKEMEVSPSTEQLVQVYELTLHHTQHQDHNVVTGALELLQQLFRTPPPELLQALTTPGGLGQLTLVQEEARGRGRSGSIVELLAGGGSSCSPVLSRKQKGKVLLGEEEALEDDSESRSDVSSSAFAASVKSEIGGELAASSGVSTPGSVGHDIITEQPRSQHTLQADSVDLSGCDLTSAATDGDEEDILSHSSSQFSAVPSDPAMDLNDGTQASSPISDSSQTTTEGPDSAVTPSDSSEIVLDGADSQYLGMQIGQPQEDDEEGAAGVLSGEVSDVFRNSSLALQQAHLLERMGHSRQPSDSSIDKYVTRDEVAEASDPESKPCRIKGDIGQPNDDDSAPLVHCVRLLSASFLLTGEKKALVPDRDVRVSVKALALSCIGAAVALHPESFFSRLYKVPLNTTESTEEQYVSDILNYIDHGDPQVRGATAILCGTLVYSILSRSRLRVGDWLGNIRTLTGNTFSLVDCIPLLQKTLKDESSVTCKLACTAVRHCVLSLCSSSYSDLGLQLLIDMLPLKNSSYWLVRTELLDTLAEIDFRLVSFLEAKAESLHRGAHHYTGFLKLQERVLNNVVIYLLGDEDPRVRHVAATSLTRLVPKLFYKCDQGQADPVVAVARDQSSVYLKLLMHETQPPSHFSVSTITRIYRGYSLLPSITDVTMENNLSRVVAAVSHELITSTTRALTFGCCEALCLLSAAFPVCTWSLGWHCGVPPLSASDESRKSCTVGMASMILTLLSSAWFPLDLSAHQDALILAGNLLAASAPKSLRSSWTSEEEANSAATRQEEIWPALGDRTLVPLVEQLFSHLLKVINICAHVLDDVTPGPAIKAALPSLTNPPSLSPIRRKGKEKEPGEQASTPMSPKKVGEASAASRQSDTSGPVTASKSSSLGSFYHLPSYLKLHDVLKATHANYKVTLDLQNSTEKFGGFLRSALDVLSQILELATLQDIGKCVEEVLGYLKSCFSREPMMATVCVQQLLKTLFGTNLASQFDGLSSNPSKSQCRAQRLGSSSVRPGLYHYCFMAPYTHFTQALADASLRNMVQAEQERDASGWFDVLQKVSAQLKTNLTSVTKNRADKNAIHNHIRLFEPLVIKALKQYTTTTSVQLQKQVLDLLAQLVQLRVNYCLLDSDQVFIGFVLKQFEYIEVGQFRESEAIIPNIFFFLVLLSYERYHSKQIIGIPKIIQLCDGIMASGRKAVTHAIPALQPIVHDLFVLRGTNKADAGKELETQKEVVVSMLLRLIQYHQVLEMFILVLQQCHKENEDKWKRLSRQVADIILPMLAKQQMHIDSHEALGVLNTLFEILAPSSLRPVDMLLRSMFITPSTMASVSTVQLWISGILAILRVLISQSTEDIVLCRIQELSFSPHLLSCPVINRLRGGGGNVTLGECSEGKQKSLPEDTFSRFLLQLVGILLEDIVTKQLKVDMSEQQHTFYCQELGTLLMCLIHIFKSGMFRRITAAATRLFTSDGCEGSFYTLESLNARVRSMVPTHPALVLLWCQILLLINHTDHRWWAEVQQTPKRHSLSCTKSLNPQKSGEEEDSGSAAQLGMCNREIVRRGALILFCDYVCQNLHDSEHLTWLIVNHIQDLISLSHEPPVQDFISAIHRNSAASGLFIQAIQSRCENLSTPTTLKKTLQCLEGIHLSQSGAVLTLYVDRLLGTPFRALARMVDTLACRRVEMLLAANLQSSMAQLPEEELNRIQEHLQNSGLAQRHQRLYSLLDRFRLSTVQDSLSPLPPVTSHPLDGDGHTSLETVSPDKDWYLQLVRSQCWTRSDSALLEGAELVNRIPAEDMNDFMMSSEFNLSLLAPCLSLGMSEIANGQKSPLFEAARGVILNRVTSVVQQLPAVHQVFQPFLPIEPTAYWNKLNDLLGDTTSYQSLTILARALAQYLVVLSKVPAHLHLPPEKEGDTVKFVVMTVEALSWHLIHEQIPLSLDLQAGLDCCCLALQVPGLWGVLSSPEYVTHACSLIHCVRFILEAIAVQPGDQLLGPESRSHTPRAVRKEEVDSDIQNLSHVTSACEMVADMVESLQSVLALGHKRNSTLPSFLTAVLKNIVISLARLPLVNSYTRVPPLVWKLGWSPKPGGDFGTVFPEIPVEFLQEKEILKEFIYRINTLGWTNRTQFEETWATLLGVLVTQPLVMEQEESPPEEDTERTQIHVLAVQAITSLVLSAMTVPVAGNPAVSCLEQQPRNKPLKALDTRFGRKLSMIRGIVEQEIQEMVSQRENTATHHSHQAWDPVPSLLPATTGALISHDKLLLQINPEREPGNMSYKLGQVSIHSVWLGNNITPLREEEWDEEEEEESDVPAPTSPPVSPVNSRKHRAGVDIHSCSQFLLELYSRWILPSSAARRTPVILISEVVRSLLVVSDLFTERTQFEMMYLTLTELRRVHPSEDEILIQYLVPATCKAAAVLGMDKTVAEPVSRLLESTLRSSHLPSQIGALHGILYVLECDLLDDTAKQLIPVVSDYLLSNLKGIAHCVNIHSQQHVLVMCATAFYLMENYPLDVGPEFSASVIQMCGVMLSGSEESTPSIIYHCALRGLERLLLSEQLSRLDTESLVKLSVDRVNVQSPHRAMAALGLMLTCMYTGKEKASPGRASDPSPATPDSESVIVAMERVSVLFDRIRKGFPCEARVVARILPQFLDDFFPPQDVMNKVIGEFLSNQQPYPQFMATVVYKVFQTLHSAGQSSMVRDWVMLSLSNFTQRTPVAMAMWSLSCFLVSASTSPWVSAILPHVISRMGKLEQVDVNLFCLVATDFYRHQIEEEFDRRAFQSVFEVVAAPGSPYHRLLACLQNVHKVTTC", "assay": "In situ autoradiography (ARG) saturation binding, HOM zQ175 HD mouse model brain sections", "settings": "cortex, 12-month-old HOM zQ175, tritium-labeled radioligand", "text": "In situ autoradiography (ARG) was used to investigate the pharmacological binding characteristics of a tritium-labeled Compound 1-6 (“[^3H]-Compound 1-6”) in the HD mouse model 12-month-old HOM zQ175 and human post-mortem brains from healthy and HD gene-expanded carriers ([…]); specificity of binding was explored by including samples from Alzheimer's disease (AD) patients, which contain other pathological aggregates (e.g., Abeta-containing plaques and phosphor-Tau-expressing tangles). Saturation binding experiments were performed in coronal brain sections; [^3H]-Compound 1-6 binding was quantified by densitometric analysis and specific binding was determined in cortex (CTX). Affinity (KD) and maximum number of binding sites (Bmax) were determined for each region of interest (ROI). At the appropriate ages, HD and WT mice of the different strains were sacrificed by cervical dislocation, and the brains, including cerebellum, were dissected and washed in ice cold PBS. Subsequently, the brains were patted dry on paper towels and transferred into a 6-well plate filled with isopentane that was cooled to a temperature between -30° C. and -40° C. The frozen brains were stored at -80° C. until sectioning. The non-fixed and non-embedded frozen brains were sectioned by using a cryostat at -18° C. Thereby, serial coronal tissue sections of 20 μm thickness were mounted on superfrost slides and dried at room temperature for approximately 90 minutes. The slides were stored at -80° C. until the different experiments were conducted, but not longer than 3 weeks. A similar procedure was conducted with fresh-frozen human post-mortem brain blocks (healthy subjects {CTRL}, Huntingon's disease {HD}, and Alzheimer's disease {AD}). The appropriate number of slides containing the respective tissue sections were acclimated to room temperature for 30 minutes. The slides were then pre-incubated by immersion into 40 mL assay buffer for 20 minutes at room temperature. […] Within each brain section, regions of interest (ROI) were defined for STR, CTX, and HPC by using appropriate sample tools, and the software calculated density measures from the gray level values of all pixels within a defined ROI (Molecular dynamics counts per unit area, MDC/mm^2). Densitometric calibration related the optical densities to known concentrations of radioactivity from the calibrated tritium standards (fmol/mg tissue) and mean values were calculated for each ROI of the individual brains. Total binding (TB) and non-specific binding (NSB) of the radioligand were quantified, and specific binding (SB) was derived by subtracting NSB from TB (SB=TB-NSB) for each brain and ROI, respectively. Subsequently, the group mean±standard deviation (SD) was calculated for each ROI and experimental condition. […]"}}, "note": "“Also recorded” adds a separate entry of the source.", "data": [{"compound": "COc1ccc(COc2cc3c(cc2F)CN(c2ccc(=O)[nH]n2)C3=O)nc1", "note": "[Compound 13-2, 5-Fluoro-6-[(5-methoxy-2-pyridyl)methoxy]-2-(6-oxo-1H-pyridazin-3-yl)isoindolin-1-one]", "values": [{"measurement": "Mean Free Brain Fraction (%)", "setting": "[1]", "value": 6.5, "unit": "%"}, {"measurement": "IC50", "setting": "[2]", "value": "< 0.1", "unit": "µM"}]}, {"compound": "COc1ccc(COc2cc(F)c3c(c2)C(=O)N(c2ccc(=O)[nH]n2)C3)nc1", "note": "[Compound 13-3, 4-Fluoro-6-[(5-methoxy-2-pyridyl)methoxy]-2-(6-oxo-1H-pyridazin-3-yl)isoindolin-1-one]", "values": [{"measurement": "Mean Free Brain Fraction (%)", "setting": "[1]", "value": 6.2, "unit": "%"}, {"measurement": "IC50", "setting": "[2]", "value": "< 0.1", "unit": "µM"}]}, {"compound": "COc1ccc(COc2cc3c(cc2F)CN(c2cn(C)c(=O)cn2)C3=O)nc1", "note": "[Compound 14-1, 5-Fluoro-6-((5-methoxypyridin-2-yl)methoxy)-2-(4-methyl-5-oxo-4,5-dihydropyrazin-2-yl)isoindolin-1-one]", "values": [{"measurement": "Mean Free Brain Fraction (%)", "setting": "[1]", "value": 15.5, "unit": "%"}, {"measurement": "IC50", "setting": "[2]", "value": "< 0.1", "unit": "µM"}]}, {"compound": "COc1ccc(COc2cc3c(cc2F)CN(c2cnc(OC)cn2)C3=O)nc1", "note": "[Compound 14-2, 5-Fluoro-2-(5-methoxypyrazin-2-yl)-6-((5-methoxypyridin-2-yl)-methoxy)isoindolin-1-one]", "values": [{"measurement": "Mean Free Brain Fraction (%)", "setting": "[1]", "value": 0.7, "unit": "%"}, {"measurement": "IC50", "setting": "[2]", "value": "< 0.1", "unit": "µM"}]}, {"compound": "COc1ccc(COc2cc3c(cc2F)C(=O)N(c2cn(C)c(=O)cn2)C3)nc1", "note": "[Compound 14-3, 6-Fluoro-5-((5-methoxypyridin-2-yl)methoxy)-2-(4-methyl-5-oxo-4,5-dihydropyrazin-2-yl)isoindolin-1-one]", "values": [{"measurement": "Mean Free Brain Fraction (%)", "setting": "[1]", "value": 17.1, "unit": "%"}, {"measurement": "IC50", "setting": "[2]", "value": "< 0.1", "unit": "µM"}]}, {"compound": "COc1ccc(NC(=O)c2ccn3c(n2)nc2ccccc23)cn1", "note": "[[^3H]-Comparative Compound 3, reference compound]", "values": [{"measurement": "specific HD binding at 0.3 nM radioligand", "setting": "mHTT aggregates [3]", "value": "no HD binding was detectable; also recorded: failed to reveal HD binding"}, {"measurement": "Bmax", "setting": "mHTT aggregates [4]", "value": 169, "unit": "fmol/mg"}]}]}
